Measurements from PubChem BioAssay AID2060345 (Molecular Pharmacology Branch, DTP, NCI, 2025).
Values joined by “and” are separate entries in the source; they are usually repeats but may differ in a detail not shown here. Equal values may be shown once.

Test system: MALME-3M multicell spheroids, viability
Experiment: Anticancer human tumor MALME-3M cell line growth inhibition [TAK];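 further: spheroids exposed to drugs for seven days before readout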;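 on viability, T/C: 100% = DMSO vehicle control viability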
Conditions: for viability, T/C: stronger effect = lower value
Summary of the method: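 Drug combinations, each paired with TAK-243 or ipatasertib, were tested on multi-cell spheroids of 60% malignant cells, 25% HUVEC and 15% hMSC. Top concentrations were at or near the clinical Cmax (10 microM if undetermined), decreasing by half-log; viability is given as % test/control.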

[1] = curve of first compound, second compound 0.3 µM
[2] = curve of first compound, second compound 0.949 µM
[3] = curve of first compound, second compound 3 µM
[4] = curve of first compound, second compound 9.49 µM
[5] = curve of first compound, second compound 30 µM

Cc1nc(NC(=O)N2CCCC2C(N)=O)sc1-c1ccnc(C(C)(C)C(F)(F)F)c1 (stereo unspecified) + CC(C)NCC(C(=O)N1CCN(c2ncnc3c2C(C)CC3O)CC1)c1ccc(Cl)cc1
IC50 [1]: > 10000 nM | IC50 [2]: > 10000 nM | IC50 [3]: > 10000 nM | IC50 [4]: 4310 nM | IC50 [5]: 355 nM | viability, T/C (second compound 0.3 µM, first compound 0.0316 µM): 110% | viability, T/C (second compound 0.3 µM, first compound 0.1 µM): 104% | viability, T/C (second compound 0.3 µM, first compound 0.316 µM): 97.7% | viability, T/C (second compound 0.3 µM, first compound 1 µM): 88.1% | viability, T/C (second compound 0.3 µM, first compound 3.16 µM): 72.5% | viability, T/C (second compound 0.3 µM, first compound 10 µM): 59.1% | viability, T/C (second compound 0.949 µM, first compound 0.0316 µM): 107% | viability, T/C (second compound 0.949 µM, first compound 0.1 µM): 103% | viability, T/C (second compound 0.949 µM, first compound 0.316 µM): 86.3% | viability, T/C (second compound 0.949 µM, first compound 1 µM): 90.7% | viability, T/C (second compound 0.949 µM, first compound 3.16 µM): 75.5% | viability, T/C (second compound 0.949 µM, first compound 10 µM): 55.4% | viability, T/C (second compound 3 µM, first compound 0.0316 µM): 94.3% | viability, T/C (second compound 3 µM, first compound 0.1 µM): 88.6% | viability, T/C (second compound 3 µM, first compound 0.316 µM): 79.3% | viability, T/C (second compound 3 µM, first compound 1 µM): 75.2% | viability, T/C (second compound 3 µM, first compound 3.16 µM): 73.8% | viability, T/C (second compound 3 µM, first compound 10 µM): 53% | viability, T/C (second compound 9.49 µM, first compound 0.0316 µM): 79.4% | viability, T/C (second compound 9.49 µM, first compound 0.1 µM): 73% | viability, T/C (second compound 9.49 µM, first compound 0.316 µM): 67.1% | viability, T/C (second compound 9.49 µM, first compound 1 µM): 67.5% | viability, T/C (second compound 9.49 µM, first compound 3.16 µM): 54.8% | viability, T/C (second compound 9.49 µM, first compound 10 µM): 37.4% | viability, T/C (second compound 30 µM, first compound 0.0316 µM): 56.3% | viability, T/C (second compound 30 µM, first compound 0.1 µM): 59.1% | viability, T/C (second compound 30 µM, first compound 0.316 µM): 47.1% | viability, T/C (second compound 30 µM, first compound 1 µM): 42% | viability, T/C (second compound 30 µM, first compound 3.16 µM): 40% | viability, T/C (second compound 30 µM, first compound 10 µM): 22%

CCCS(=O)(=O)Nc1ccc(F)c(C(=O)c2c[nH]c3ncc(-c4ccc(Cl)cc4)cc23)c1F
viability, T/C (compound 0.316 µM): 26.3% and 29.5% | viability, T/C (compound 1 µM): 22.6% and 22.5% | viability, T/C (compound 3.16 µM): 19.4% and 20.7% | viability, T/C (compound 10 µM): 15.4% and 17% | viability, T/C (compound 31.6 µM): 19.3% and 3.37% | viability, T/C (compound 100 µM): 15.6% and 16.2% | IC50 (curve of compound): < 316 nM

CC(=O)Nc1cccc(-n2c(=O)n(C3CC3)c(=O)c3c(Nc4ccc(I)cc4F)n(C)c(=O)c(C)c32)c1 + CC(C)NCC(C(=O)N1CCN(c2ncnc3c2C(C)CC3O)CC1)c1ccc(Cl)cc1
IC50 [1]: 0.422 nM | IC50 [2]: 0.468 nM | IC50 [3]: 0.251 nM | IC50 [4]: 0.181 nM | IC50 [5]: < 0.0949 nM | viability, T/C (second compound 0.3 µM, first compound 94.9 pM): 107% | viability, T/C (second compound 0.3 µM, first compound 0.0003 µM): 62.2% | viability, T/C (second compound 0.3 µM, first compound 0.000949 µM): 20.4% | viability, T/C (second compound 0.3 µM, first compound 0.003 µM): 14.8% | viability, T/C (second compound 0.3 µM, first compound 0.00949 µM): 10.7% | viability, T/C (second compound 0.3 µM, first compound 0.03 µM): 4.75% | viability, T/C (second compound 0.949 µM, first compound 94.9 pM): 99.9% | viability, T/C (second compound 0.949 µM, first compound 0.0003 µM): 68.3% | viability, T/C (second compound 0.949 µM, first compound 0.000949 µM): 20.4% | viability, T/C (second compound 0.949 µM, first compound 0.003 µM): 13.9% | viability, T/C (second compound 0.949 µM, first compound 0.00949 µM): 9.51% | viability, T/C (second compound 0.949 µM, first compound 0.03 µM): 5.18% | viability, T/C (second compound 3 µM, first compound 94.9 pM): 84.4% | viability, T/C (second compound 3 µM, first compound 0.0003 µM): 44.2% | viability, T/C (second compound 3 µM, first compound 0.000949 µM): 19.2% | viability, T/C (second compound 3 µM, first compound 0.003 µM): 11.1% | viability, T/C (second compound 3 µM, first compound 0.00949 µM): 7.71% | viability, T/C (second compound 3 µM, first compound 0.03 µM): 2.69% | viability, T/C (second compound 9.49 µM, first compound 94.9 pM): 70.4% | viability, T/C (second compound 9.49 µM, first compound 0.0003 µM): 33.8% | viability, T/C (second compound 9.49 µM, first compound 0.000949 µM): 15.5% | viability, T/C (second compound 9.49 µM, first compound 0.003 µM): 10.1% | viability, T/C (second compound 9.49 µM, first compound 0.00949 µM): 4.94% | viability, T/C (second compound 9.49 µM, first compound 0.03 µM): 1.67% | viability, T/C (second compound 30 µM, first compound 94.9 pM): 44.2% | viability, T/C (second compound 30 µM, first compound 0.0003 µM): 25% | viability, T/C (second compound 30 µM, first compound 0.000949 µM): 10.5% | viability, T/C (second compound 30 µM, first compound 0.003 µM): 4.22% | viability, T/C (second compound 30 µM, first compound 0.00949 µM): 2.32% | viability, T/C (second compound 30 µM, first compound 0.03 µM): 0.3%

CC(C)(C)c1nc(-c2cccc(NS(=O)(=O)c3c(F)cccc3F)c2F)c(-c2ccnc(N)n2)s1
viability, T/C (compound 0.0316 µM): 21.4% and 24.8% | viability, T/C (compound 0.1 µM): 22.8% and 21.5% | viability, T/C (compound 0.316 µM): 20.7% and 21.4% | viability, T/C (compound 1 µM): 22.4% and 21.4% | viability, T/C (compound 3.16 µM): 21.2% and 23.6% | viability, T/C (compound 10 µM): 29.8% and 27.6% | IC50 (curve of compound): < 31.6 nM

Cn1cnc2c(F)c(Nc3ccc(Br)cc3Cl)c(C(=O)NOCCO)cc21
viability, T/C (compound 0.00949 µM): 82.6% and 84.7% | viability, T/C (compound 0.03 µM): 49% and 52.6% | viability, T/C (compound 0.0949 µM): 22% and 21.7% | viability, T/C (compound 0.3 µM): 15.4% and 16.9% | viability, T/C (compound 0.949 µM): 12% | viability, T/C (compound 3 µM): 5.64% and 5.37% | IC50 (curve of compound): 28.2 nM and 32 nM
